Experiments:
[1] = tested on: DAOY medulloblastoma cells; experiment: DAOY medulloblastoma cells, MTT assay and light microscopy; format: cell-based; conditions: after 24 h treatment; each treatment had holo-Tf (20 μg/well)
Protocol: The compound ART-Phe-Sal was tested on DAOY medulloblastoma cells using the MTT assay. DAOY Medulloblastoma cells (5,000 cells/200 μL) was seeded on a 96 well plate and incubated for 24 h at 37° C. Cell culture medium was removed after 24 h and 150 μL of medium with treatment was added. Each experimental treatment had holo-Tf (20 μg/well). Treatment assay was viewed under light microscope after 24 h.
Treatment medium was removed after 48 h, and 100 μL of cell medium was added. MTT Reagent (10 μL, 12 mM) was added to each well. This solution was incubated at 37° C. for 4 h. Isopropanol (100 μL) was added to each well to lyse the cells, which were then incubated at 4° C. for 30 m. After incubation each well was plunged (3×200 μL) to ensure the cells were lysed. The incubated medium with MTT reagent was then centrifuged at 13,000 RPM in an eppendorph centrifuge for 3 minutes at room temperature. 100 μL of supernatant was read in a plate reader at λ=570 nm. FIG. 13 compares the effect of dihydroartemisinin (DHA) and ART-Phe-Sal on DAOY medulloblastoma cell line. The concentration of holo-Tf was 1.7 μM.

human leukemia cells = conditions: cited from earlier work

Molecule | cell shrinkage under light microscope [1] | therapeutic index (toxicity towards cancer cells versus normal cells) (human leukemia cells)
holo-Tf: Human holotransferrin (Sigma Chemicals), iron carrying protein added to the cells | Moderate cell shrinkage | –
C[C@@H]1CC[C@H]2[C@@H](C)C(=O)O[C@@H]3O[C@@]4(C)CC[C@@H]1[C@]32OO4 [Artemisinin] | – | approximately 100

Source: patent US7692030B2, “Conjugates of artemisinin-related endoperoxides and hydrazone derivatives for the treatment of cancer” (University of Washington, priority 2006, dated 2010)
